This assay addresses T1, KIT D816H (Homo sapiens, UniProt P10721, D816H).
T1 construct: purchased Thermo Fisher Scientific (Life Technologies) SelectScreen
The assay can be described thus: SelectScreen LanthaScreen. It counts as binding. The note with it: read-out: % displacement. A digest of the protocol: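 SelectScreen broad panel; activity (Z'LYTE, Adapta) plus binding formats. ATP: Km app for CSF1R Z'LYTE; 10 for CAMK1 Adapta. Readout = % per kinase.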
On the technique in general: In TR-FRET formats the signal depends on donor and acceptor labels being close together.

T1 sequence (P10721 26-976 D816H): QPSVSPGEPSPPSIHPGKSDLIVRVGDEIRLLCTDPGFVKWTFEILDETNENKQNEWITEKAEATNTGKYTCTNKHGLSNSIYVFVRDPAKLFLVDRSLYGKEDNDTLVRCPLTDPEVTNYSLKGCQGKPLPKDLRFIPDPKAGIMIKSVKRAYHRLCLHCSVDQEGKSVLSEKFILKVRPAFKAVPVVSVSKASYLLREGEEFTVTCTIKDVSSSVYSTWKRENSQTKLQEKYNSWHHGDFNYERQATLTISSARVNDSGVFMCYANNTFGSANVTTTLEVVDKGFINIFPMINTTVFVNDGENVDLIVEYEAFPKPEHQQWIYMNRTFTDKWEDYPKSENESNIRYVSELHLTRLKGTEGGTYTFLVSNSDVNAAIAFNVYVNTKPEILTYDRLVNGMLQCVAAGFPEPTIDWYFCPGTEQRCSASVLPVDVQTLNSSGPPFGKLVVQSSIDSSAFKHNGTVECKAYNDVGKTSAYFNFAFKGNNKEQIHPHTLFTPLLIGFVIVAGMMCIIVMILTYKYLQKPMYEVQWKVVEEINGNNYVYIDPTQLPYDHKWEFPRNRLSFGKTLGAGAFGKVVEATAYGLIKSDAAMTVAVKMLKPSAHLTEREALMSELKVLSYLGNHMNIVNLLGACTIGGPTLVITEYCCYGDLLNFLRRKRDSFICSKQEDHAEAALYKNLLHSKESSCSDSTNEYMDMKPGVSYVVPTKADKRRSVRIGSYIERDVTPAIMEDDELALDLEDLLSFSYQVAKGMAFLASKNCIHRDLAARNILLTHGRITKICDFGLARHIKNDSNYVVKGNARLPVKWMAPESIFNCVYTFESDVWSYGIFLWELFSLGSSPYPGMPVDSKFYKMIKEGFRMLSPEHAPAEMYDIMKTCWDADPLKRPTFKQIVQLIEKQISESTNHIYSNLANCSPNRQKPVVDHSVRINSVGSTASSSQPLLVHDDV

Take `CN(C(=O)CN1CCOCC1)c1ccc2sc3c(-c4cccc5c(=O)cc(N6CC7CCC(C6)O7)oc45)cccc3c2c1` [NU5455]: the inhibition at 1 µM was -0.2%.

Values taken from article PMC6934184, “Selective DNA-PKcs inhibition extends the therapeutic index of localized radiotherapy and chemotherapy” (The Journal of Clinical Investigation, 2019).
